Assay results taken from PubChem BioAssay (NCI).
Where “and” joins values, the source holds several entries; their conditions need not be identical. Identical values can stand only once.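 Values below derive from 48-hour exposures of cells grown in 96-well plates, with endpoints linearly interpolated between the two concentrations bracketing the appropriate inhibition level. GI50 marks 50% less growth. TGI denotes the concentration required for complete inhibition of growth.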

Tests used:
Experiment in all cases: NCI anticancer screen, dose series, 48 h
[1] = system: DMS 114 small cell lung
[2] = system: ACHN renal
[3] = system: HT29 colon
[4] = system: LXFL 529 NSCLC
[5] = system: UACC-257 melanoma
[6] = system: NCI-H522 lung
[7] = system: A498 renal
[8] = system: NCI/ADR-RES ovarian
[9] = system: DU-145 prostate
[10] = system: MDA-MB-435

SMILES	GI50 [1] [µM]	TGI [1]	GI50 [2] [µM]	TGI [2]	GI50 [3] [µM]	TGI [3]	GI50 [4] [µM]	TGI [4]	TGI [5]	GI50 [6] [µM]	TGI [6]	TGI [7] [µM]	GI50 [5] [µM]	GI50 [8] [µM]	TGI [8] [µM]	GI50 [9] [µM]	TGI [9] [µM]	GI50 [10] [µM]	TGI [10] [µM]	GI50 [7] [µM]
CC(=O)OCC1OC(OC2CC3C(C)(C)C(O)CC[C@]3(C)C3CCC45CC4(CC[C@H]5C(C)CC(O)C4OC4(C)C)[C@]23C)C(O)C(O)C1O (stereo not given in full)	6.7	11.3 µM and 21.3 µM	19.2	15.5 µM and 33.6 µM	12.9	15.7 µM and 27.7 µM	2.92	12.2 µM and 12.6 µM	16.1 µM and 22.6 µM	5.75	11.8 µM and 19 µM	51.8	–	–	–	–	–	–	–	–
O=C(C(=O)N1CC2C=CC1CC2)c1c[nH]c2ccccc12 (stereo not given)	–	> 100 µM	–	> 100 µM	–	> 100 µM	–	> 100 µM	> 100 µM	–	> 100 µM	> 100	–	–	–	–	–	–	–	–
C1OC1CO[C@@H]1CO[C@H]2[C@@H]1OC[C@H]2OCC1CO1 (stereo not given in full)	–	> 100 µM	–	> 100 µM	–	> 100 µM	–	–	> 100 µM	–	> 100 µM	> 100	–	–	–	–	–	–	–	–
O=C1c2c(n(Cc3ccccc3)c(=O)n2Cc2ccccc2)C(=O)N1Cc1ccccc1	–	> 100 µM	–	> 100 µM	–	> 100 µM	–	> 100 µM	> 100 µM	–	> 100 µM	> 100	–	–	–	–	–	–	–	–
CCN(CCCl)CCCNc1c2ccccc2nc2ccc(OC)cc12	–	1.76 µM	–	1.34 µM	82.3	–	–	1.7 µM	–	103	–	356	457	–	–	–	–	–	–	–
c1ccc2c(c1)[nH]c1cnc3c4cccnc4[nH]c3c12	–	37.4 µM	–	23.4 µM	–	34.6 µM	–	35.5 µM	52.4 µM	–	–	> 100	–	–	–	–	–	–	–	–
CC#CC1/C(=C\C(=O)OC)CCCC1O (stereo not given)	–	> 100 µM	–	> 100 µM	–	> 100 µM	–	–	> 100 µM	–	> 100 µM	> 100	–	–	–	–	–	–	–	–
CCCCOC(=O)NC(=O)c1cn(CCSCCOC(=O)NCCCCCCNC(=O)OCCSCCn2cc(C(=O)NC(=O)OCCCC)c(=O)[nH]c2=O)c(=O)[nH]c1=O	–	> 100 µM	–	> 100 µM	–	> 100 µM	–	> 100 µM	> 100 µM	–	> 100 µM	64.7	–	–	–	–	–	–	–	–
CCOC(=O)C1SC(=Nc2ccc(Cl)c(Cl)c2)N=C1C (stereo not given)	–	–	–	> 100 µM	–	66.8 µM	–	> 100 µM	> 100 µM	–	> 100 µM	84.3	–	–	–	–	–	–	–	–
COc1ccc2nc3cc(Cl)ccc3c(NCCCNCCC(C)O)c2c1 (stereo not given)	–	–	0.192	1.68 µM	0.172	1.25 µM	–	–	3.43 µM	0.196	0.75 µM	1.54	1.63	2.46	15.5	0.302	1.24	0.504	1.79	0.42
CCOC(=O)C(=Cc1ccc(C(=O)OC)cc1)C(=O)OCC	–	3.74 µM	–	3.48 µM	–	18.1 µM	–	3.62 µM	–	–	2.8 µM	26	–	–	–	–	–	–	–	–
CN1CC(C(=O)C2C(=O)c3ccccc3C2=O)C(=O)C(=O)C(C(=O)C2C(=O)c3ccccc3C2=O)C1 (stereo not given)	–	> 100 µM	–	> 100 µM	–	> 100 µM	–	–	> 100 µM	–	> 100 µM	> 100	–	–	–	–	–	–	–	–
COc1cccc(/C=C/c2cnc3ccccc3n2)c1OC	–	–	–	> 100 µM	–	98.1 µM	–	–	> 100 µM	–	53.5 µM	> 100	–	–	60.1	–	> 100	–	> 100	–
